Source: US12121565B2, “Methods of treatment of specific cancers with NLRP3 inhibitors and anti-PD1/PD-L1 antibodies” (Duke University, priority 2019, dated 2024)

How the values were obtained:
[1] = tested on: autochthonous BRAFV600E PTEN−/− melanoma model; test: Autochthonous tumor study: tumor growth, Gr-1 IHC, flow cytometry of tumor-infiltrating cells, serial biopsy qRT-PCR; format: in vivo, mouse
Method: B6.Cg-Braf^tm1MmcmPten^tm1Hwu Tg(Tyr-cre/ERT2 H-2^b)13Bos/BosJ transgenic mice were subdermally injected with 4-Hydroxytomoxifen (4-HT) (Sigma, H6278-50MG CCF, 38.75 μg/mouse) to induce primary melanoma development at the base of the tail. Mice were randomly assigned to treatment cohorts once tumor volumes reached 64 mm^3 (19, 30, 50). Depending on the experiment, mice were treated with the following agents: CXCR2 inhibitor (AZD5069, AstraZeneca) at 100 mg/kg per os (po) twice daily, NLRP3 inhibitor (MCC950) 10 mg/kg i.p every other day, anti-PD1 ab (BioXCell) or rat IgG2a isotype control (BioXCell) at 200 μg by i.p. injection every 3 days, Dacarbazine (50 mg/kg or 75 mg/kg, Sigma-Aldrich, D2390) by i.p. injection once every other day. Melanoma growth was monitored by orthogonal caliper measurements every 3 days.
Tumors were resected and mechanically disaggregated by a gentleMACS dissociator (Miltenyi), filtered through 70-μm filters and digested with RPMI containing collagenase IV (1 mg/mL, Sigma-Aldrich), hyaluronidase (0.1 mg/mL, Sigma-Aldrich), and deoxyribonuclease (20 U/mL, Sigma-Aldrich) on a shaker at 250 rpm at 37° C. for 1 hour (23). Resected splenic and lymph node tissues were mechanically disaggregated using 1 cc syringe plunger and 40 μm filters followed by treatment with RBC lysis buffer (Sigma-Aldrich).
Paraffin-embedded tissues were processed and stained following standard protocols and imaged with a Zeiss CLSM 700 confocal microscope. The following antibodies were used in immunohistochemistry and immunofluorescence experiments: anti-Wnt5a (1 μg/ml), anti-Ly6G (0.5 μg/ml), anti-CD8a (0.5 μg/ml) and anti-CXCL5 (1 μg/ml). Tissue was permeabilized by incubation in 0.4% Triton-X in TBS for 20 min. Goat anti-rabbit conjugated to Alexa Fluor 564 and goat anti-mouse Alexa 488 were used as secondary antibodies for the appropriate primary antibody. For immunohistochemistry, anti-rat polymers were used as secondary antibodies and Warp Red chromogen detection system (BioCare, WR806S) was used for antigen visualization.
One million cells were stained with 1 μg per million cells of each fluorochrome conjugated antibodies or commercially available dyes according to the standard protocols and analyzed using a FACSCanto II or LSRII (Becton Dickinson). Cells were stained with Fc receptor blocking antibodies followed by a live/dead discriminator (CellTrace Violet, ThermoFisher, C34571), then by conjugated antibodies for 30 min at 4° C. Cell number was calculated by hemocytometer. Flow cytometry data was analyzed using Flowjo software v10.3.
Total RNA was isolated by RNeasy Plus Mini Kit (Qiagen, 74134). […] All data were normalized to Actb expression, and relative gene expression was quantitated based on the 2_DDCt method.

[2] = tested on: WM266 human melanoma cell line; test: In vitro treatment of human melanoma cell line followed by Western blot; format: cell-based; settings: with or without TLR4 inhibitor; in a TLR4-dependent manner
From the text: FIG. 7A-G. The PD-L1/NLRP3/HSP70 PMN-MDSC adaptive recruitment pathway in human melanoma. (A) Supernatant HSP70 and caspase-1 p20 Western blot analysis following treatment of human WM266 melanoma cells with IFN-γ with or without anti-PD-L1 Ab. Blots are representative of 3 independent experiments. (B) Wnt5A Western blot analysis of HSP70-treated human WM266 melanoma cells with or without TLR4 inhibitor. Blots are representative of 3 independent experiments. (C) HSP70 and caspase-1 p20 Western blot analysis following treatment of human WM266 melanoma cells with ATP in the absence and presence of MCC950. Blots are representative of 2 independent experiments. (D) Cytolytic T cell markers correlated with ITGAM (CD11B), CD33, and NLRP3 gene expression in the melanoma TCGA-SKCM database. (E) RNA-Seq analysis of human melanoma tissue specimens collected before anti-PD-1 Ab therapy and at the time of disease progression on anti-PD-1 Ab therapy. TPM, transcripts per million. (F) Plasma HSP70 ELISA at week 0 and week 12 in patients with advanced melanoma undergoing anti-PD-1 Ab immunotherapy. (G) Change in HSP70 plasma levels following anti-PD-1 Ab immunotherapy in patients with advanced melanoma who were responders (R) or nonresponders (NR). The response was based on week-12 CT imaging. HSP70 changes were normalized to target tumor burden based on week-12 CT imaging. […]

[3] = tested on: BRAFV600E PTEN−/− melanoma cell line; test: In vitro treatment of melanoma cell line followed by Western blot, qRT-PCR, IP, ASC polymerization or ELISA; format: cell-based, mouse
From the text: Braf^V600EPten^−/− (male, BPD6 (40)), Braf^V600EPten^−/−-Wnt5a^KD (40), Braf^V600EPten^−/−-CXCL5^KD, Braf^V600EPten^−/−-PDL1^KD, Braf^V600EPten^−/−-NLRP3^KD, OVA-expressing Braf^V600EPten^−/−, BRAF^V600EPTEN^−/−-STAT3^CA, and Braf^V600EPten^−/−-NTC (40) cell lines were generated using shRNA-expressing lentiviral vectors and cultured as previously described (40): shNLRP3 (Sigma, SHCLN-NM_145827), shPDL1 (Sigma, SHCLND-NM_021893), shWnt5a (Sigma, SHCLND-NM_009524), shTLR4 (Sigma, SHCLNG-NM_025817, and pLKO.1-puro empty vector control (NTC) (Sigma, SHC001). Stable cell lines were selected by puromycin resistance (Sigma-Aldrich, P8833). Murine Lewis Lung Carcinoma (LLC) cell line is from ATCC (1704526). All cell lines were tested Mycoplasma-free by Duke University Cell Culture Facility shared services. All Braf^V600EPten^−/− cell lines and the LLC cell line were maintained at 37° C. in DMEM (Invitrogen) with 2 mM L-glutamine, supplemented with 10% fetal bovine serum, 100 units/ml penicillin. Depending on the experiment, cell lines were treated with Wnt5a (100-200 ng/ml, R&D Systems/Bio-techne, 645-WN-010), IFNγ (100 ng/ml, BioAbChem, 42-IFNg), anti-PD-L1 ab (1-2 μg/ml), Hsp70 (1 μM-10 μM, Enzo, ADI-ESP-502-D), Hsp70 inhibitor (ThermoFisher, VER155008), CLI-095 TLR4 inhibitor (3 μM-10 μM, Invivogen, tlrl-cli95), TLR2-IN-C29 TLR2 inhibitor (1 μM-10 μM, Glixx, GLXC-06203), MPLA TLR4 agonist (10 μM, Enzo, ALX-581-205-C100), LPS (Lipopolysaccharide) (10 ng, Sigma-Aldrich, L4391-1MG), ATP (1 mM-5 mM, Invivogen, tlrl-atpl), MCC950 NLRP3 inhibitor (2.5 μM-10 μM, Invivogen, inh-mcc), XAV939 β-catenin inhibitor (0.5-1.0 μM, Sigma-Aldrich, X3004-5MG), 2-Aminopurine PKR inhibitor (1 mM-5 mM, Invivogen, tlrl-apr), Verteporfin YAP inhibitor (0.1 μM-1 μM, R&D Systems/Bio-techne, 530510) or vehicle control either for 24 or 48 hrs prior to in vitro and in vivo experiments. Control siRNA (Santa Cruz, sc-37007). TLR4 siRNA (SantaCruz, sc-40261).
OT-1 CD8 cell activation was performed by incubating isolated splenocytes of OT-1 transgenic mice with IL-2 (100 U/ml) and SIINFEKL peptide (1 μg/ml, New England Peptide, BP10-915) for 3 days followed by magnetic bead CD8 purification according to the manufacturer's instructions (Miltenyi biotec, 130-104-075). Activated OT-1 CD8 cells were incubated with Braf^V600EPten^−/−-OVA cells and treated with anti-PD1 ab (1 μg/ml) for 72 hrs at a tumor cell:CD8^+ T cell ratio of 1:5. In separate experiments, Braf^V600EPten^−/− cells were treated with increasing concentrations of Dacarbazine (10 μmol-400 μmol).
Tumor tissue or cells were homogenized in NP40 lysis buffer (Sigma-Aldrich) supplemented with complete protease inhibitor and phosphatase inhibitor (Roche). Cells were lysed in Laemmli sample buffer after treatment and subjected to SDS-polyacrylamide gel electrophoresis. After transferring onto PVDF membranes (Bio-Rad), monoclonal and polyclonal primary antibodies and appropriate HRP-conjugated secondary antibodies were utilized for blotting. For the immunoprecipitation assays, cells were lysed with TBS buffer (50 mM Tris-HCl (pH 7.4), 150 mM NaCl) containing 0.5% Triton X-100, EDTA-free protease inhibitor cocktail and phosphatase inhibitor cocktail, precleared with protein A/G beads, and then incubated with 1 μg of appropriate antibodies or isotype control IgG on a rotator overnight at 4° C. then incubated with protein A/G-agarose at 4° C. for 1 hour. After 5 washes with TBS buffer, immunoprecipitated complexes were eluted in sample buffer by boiling and subjected to immunoblot analysis. Immunoblots were visualized by chemiluminescence substrate (ThermoFisher) and imaged by a ChemiDoc XRSplus system (BioRad). For the ASC polymerization assay, cells were lysed with TBS buffer containing 0.5% Triton X-100, EDTA-free protease inhibitor cocktail and phosphatase inhibitor cocktail. The lysates were centrifuged at 4,000 g at 4° C. for 15 min. […]

[4] = tested on: human melanoma tissue specimens; test: RNASeq of human melanoma tissue at baseline and during disease progression; format: in vivo; settings: following disease progression versus baseline
From the text: All plasma samples were collected from 17 advanced melanoma patients undergoing anti-PD-1 ab immunotherapy at week 0 and week 12 on an ongoing tissue acquisition protocol investigating checkpoint inhibitor resistance at Duke Cancer Institute (NCT02694965). Three paired tumor specimens obtained at week 0 and at the time of disease progression while undergoing anti-PD-1 ab immunotherapy were collected at Vanderbilt University Medical Center (Institutional Protocol #: 100178). Treatment responses were evaluated based on RECIST (Response Evaluation Criteria in Solid Tumors v1.1).
RNA-seq was performed by Duke Sequencing and Genomic Technologies Shared Resources. A complementary DNA library was prepared via oligo-dT-directed reverse transcription (Ambion) and subjected to deep sequencing on IlluminaHiSeq4000 (50-bp single-read sequencing; Anti-PD-1 resistance Study RNA-seq, accession number: SAMN09878780). RNA-seq data generated here and publicly available RNA-seq data were processed by Duke Center for Genomic and Computational Biology using the TrimGaloretoolkit that uses Cutadapt to trim low-quality bases and Illumina sequencing adapters from the 3′ end of the reads. Only reads that were of 20 nucleotides (nt) or longer after trimming were kept for further analysis. Reads were mapped to the GRCm38v68 version of the mouse genome and transcriptome using the STAR RNA-seq alignment tool. […]

[5] = CXCR2 inhibitor 100 mg/kg po twice daily combined with anti-PD-1 Ab

Molecule: C[C@@H](Oc1cc(NS(=O)(=O)N2CCC2)nc(SCc2cccc(F)c2F)n1)[C@@H](O)CO [AZD5069]
- CD8+ T cell tumor infiltration [1, 5]: enhanced
- PMN-MDSC recruitment in response to anti-PD-1 Ab therapy [1, 5]: significantly suppressed
- tumor progression [1, 5]: suppressed
- time dependence of impact on tumor volume change rate ([1]; correlating with the period of PMN-MDSC influx into the tumor): more significant at later time points

Molecule: HSP70: recombinant HSP70 (1 μM-10 μM, Enzo, ADI-ESP-502-D)
- Wnt5a upregulation by HSP70 [2]: induced
- receptor dependence of HSP70 stimulation of Wnt5a expression ([3]; pharmacologic inhibitor and shRNA silencing studies): TLR4 dependent
- Wnt5a expression after HSP70 stimulation (Western blot) ([3]; titrated concentrations, in a dose-dependent manner): induced upregulation

Molecule: IL-1β: recombinant IL-1β at titrated concentrations
- induction of Wnt5a expression by tumor cells ([3]; titrated concentrations of recombinant IL-1β): no evidence

Molecule: nivolumab: an anti-PD-1 antibody, available from Bristol-Myers Squibb Co
- expression of myeloid markers CXCL1, CD33, ITGAM, CXCR2, S00A8 and S00A9 [4]: elevated expression

B1: rWnt5a: recombinant Wnt5a (100-200 ng/ml, R&D Systems/Bio-techne, 645-WN-010) (protein, UniProt P41221 62-380, looked up)
Protein Wnt-5a: IIGAQPLCSQLAGLSQGQKKLCHLYQDHMQYIGEGAKTGIKECQYQFRHRRWNCSTVDNTSVFGRVMQIGSRETAFTYAVSAAGVVNAMSRACREGELSTCGCSRAARPKDLPRDWLWGGCGDNIDYGYRFAKEFVDARERERIHAKGSYESARILMNLHNNEAGRRTVYNLADVACKCHGVSGSCSLKTCWLQLADFRKVGDALKEKYDSAAAMRLNSRGKLVQVNSRFNSPTTQDLVYIDPSPDYCVRNESTGSLGTQGRLCNKTSEGMDGCELMCCGRGYDQFKTVQTERCHCKFHWCCYVKCKKCTEIVDQFVCK
- diminished CXCL5 expression of Wnt5a-knockdown cell line after addition of rWnt5a ([3]; BRAFV600E PTEN−/− Wnt5aKD cells, qRT-PCR): rescued
- YAP stabilization (Western blot) ([3]; rWnt5a at various time points): induced
- Cxcl2, Cxcl5 and Cxcl1 gene expression (qRT-PCR) ([3]; rWnt5a versus vehicle control): induced
- CXCL5 expression (Western blot) ([3]; rWnt5a, in a YAP-dependent manner): stimulating
